Data taken from US20260242440A1, “NOVEL MEANS TO MODULATE NMDA RECEPTOR-MEDIATED TOXICITY” (FUNDAMENTAL PHARMA GMBH, priority 2018, published 2026).

Key:
HEK293 cells = test: Luminescent cytotoxicity assay, HEK293 cells transfected with GRIN1 and GRIN2A or GRIN2B; format: cell-based, human; settings: compound added 6 h after transfection; cell death 48 h after transfection
Method: HEK293 cells were cultured in Dulbecco's Modified Eagle Medium (DMEM, Gibco™ 41965-039) supplement with 10% Fetal Bovine Serum (FBS, Gibco™, 10270), 1% Sodium Pyruvate (Gibco™, 11360070), 1% MEM NEAA (GibcoT^M, 11140035) and 0.5% Penicillin-Streptomycin (P-S; Sigma, P0781) and Passagel5-25 were used for experiments.
To test the cytotoxicity of compounds according to the present invention, HEK293 cells (70-80% confluent) were transfected 24 hours after plating with both GRIN1 and GRIN2 Å or GRIN2B, respectively (1:[…]) with Lipofectamine 2000 according to manufacturer's instructions. The relative number of dead cells in the population at the indicated time points after transfection was measured with the CytoTox-Glo™ Cytotoxicity assay (Promega, G9290) according to manufacturer's instruction with minor modification. Briefly, 10% of total medium were mixed with 10 μL AAF-amino luciferin to reach a final volume at 200 μL with water, the dead cell relative luminescence units (DRLU) was measured by GloMax (Promega) in a 96 well white bottom polystyrene microplate (Corning Costar®, 3912). After all the measurements, lysis reagents have been added to the cells and 10% of lysate was used for the total cell relative luminescence units (TRLU) measurement. Cell death was calculated by the following equations: […]
For drug testing, P4, P8, P9, P13 and P15 were added to the medium at indicated concentration 6 h after transfection. DRLU, TRLU and cell death were measured and calculated 48 h after transfection.

NMDA receptor = test: NMDA-induced calcium transients (Fura2 calcium imaging); format: cell-based, mouse; settings: hippocampal neurons, 6 min NMDA (20 μM) application
Method: In a further experiment, the impact of P4 and P15 on NMDA-induced calcium transients was assessed. Briefly, for calcium imaging, primary hippocampal neurons on coverslips were loaded with the cell-permeable, high-affinity ratiometric calcium indicator Fura2-AM (Invitrogen™ F1221), at 1 μM in CO2-independent culture medium (CICM; CICM contains: 10 mM HEPES, 140 mM NaCl, 2.5 mM KCl, 1.0 mM MgCl2, 2.0 mM CaCl2, 1.0 mM Glycine, 35.6 mM Glucose and 0.5 mM Na-pyruvate) for 30 min at 37° C., then washed and left in CICM for another 30 min to allow for de-esterification. Fura2 was excited at 340/11 nm and 380/11 nm, and fluorescence emission was obtained from a 40× UV compatible objective (LUMPLFLN, Olympus) through a 510/20 nm emission filter. For quantification, ImageJ was used to calculate average background-subtracted fluorescence intensities for 340 and 380 nm excitation (F340 and F380) from each neuron. Intracellular calcium levels were plotted as F340/F380 ratios over time, from which the NMDA response amplitude and area under the curve (AUC) was calculated to quantify NMDA-induced calcium influx.

[1] = tested on: primary mouse hippocampal neurons; test: NMDA receptor induced mitochondrial membrane potential breakdown (Rh123 imaging); format: cell-based; settings: polypeptides expressed via rAAV; bath application of 20 μM NMDA
Method: Coverslips with primary cultured neurons (DIV15-DIV17) were used to examine mitochondrial membrane potential (Ψm) and mitochondrial calcium signalling, which was performed at room temperature in CO2-independent culture medium (CICM) containing: 10 mM HEPES, 140 mM NaCl, 2.5 mM KCl, 1.0 mM MgCl2, 2.0 mM CaCl2, 1.0 mM Glycine, 35.6 mM Glucose and 0.5 mM Na-pyruvate. All images were obtained by a cooled-CCD camera (iXon 887, Andor) on an upright microscope (BX51WI, Olympus). Fluorescence excitation was provided by a xenon arc lamp in combination with an excitation filter wheel (MT-20, Olympus). Data were collected using Cell^R software (Olympus), analysed using ImageJ and quantified using Igor Pro (WaveMetrics). Ψm was detected with the small molecule fluorescence indicator Rhodamine 123 (Rh123; Molecular Probe™, R302). Primary cultured neurons were loaded with 4.3 μM Rh123 in CICM at 37° C. for 30 min, then washed and left in CICM for another 30 min before recording. At the end of each experiment, the mitochondrial uncoupler FCCP (5 μM, Sigma-Aldrich, Cat #C2920) was applied to the cells to reach the maximal Rh123 fluorescence intensity. Rh123 was imaged with 470±20 nm excitation and 525±25 nm emission wavelengths using a 20× objective. Rh123 fluorescence intensity was measured in the nucleus to minimize contamination from cytosolic mitochondrial signal and Rh123 fluorescence intensity was normalized to the maximum FCCP signal for each region of interest.
Mitochondrial dysfunction is a hallmark of NMDA receptor excitotoxicity and an early event en-route to neuronal death. A parameter that is often used to assess mitochondrial integrity is the mitochondrial membrane potential. A breakdown of the mitochondrial membrane potential can be observed after exposure of hippocampal or cortical neurons to NMDA and indicates excitotoxicity-associated mitochondrial dysfunction. Therefore, the inventors investigated the effect of polypeptides comprising the sequence of SEQ ID NO:5 or SEQ ID NO: 54 as well as of the control TRMP5 sequence (SEQ ID NO: 55) on mitochondrial membrane potential break down in primary mouse hippocampal neurons. Excitotoxicity leading to mitochondrial membrane potential break down was induced with bath application of 20 μM NMDA. After 11 minutes, the mitochondrial uncoupler, carbonylcyanide-p-trifluoromethoxyphenylhydrazone (FCCP) was added. Addition of FCCP leads to break-down of the mitochondrial membrane potential and served as a control of the test system.

[2] = tested on: primary mouse hippocampal neurons; test: NMDA induced cell death (excitotoxicity) in cultured primary neurons; format: cell-based; settings: polypeptide expressed via rAAV infection on DIV3, NMDA 20 μM for 10 min, cell death assessed 24 h later
Method: Primary mouse hippocampal and cortical neurons were prepared and maintained as known. Briefly, hippocampi or cerebral cortex from P0 C57Bl/6NCrl mice were dissociated and plated at a density of 1.2*105/cm^2 in Growth Medium (GM), consisting of Neurobasal A medium (Gibco™, 10888022), 2% serum free B27™ Supplement (Gibco™, 17504044), 1% rat serum (Biowest, S2150), 0.5 mM L-Glutamine (Sigma, G7513) and 0.5% P-S. Cytosine β-D-arabinofuranoside (AraC; Sigma, C1768; 2.8 μM) was added on DIV3 to prevent the proliferation of glial cells. From DIV8, half of the medium was replaced by GM without Rat serum every 48 h until being used for experiments. 24 h before experiments, GM was replaced with transfection medium (10 mM HEPES, pH 7.4, 114 mM NaCl, 26.1 mM NaHCO3, 5.3 mM KCl, 1 mM MgCl2, 2 mM CaCl2, 30 mM glucose, 1 mM glycine, 0.5 mM C3H3NaO3, and 0.001% phenol red and 10% of phosphate-free Eagle's minimum essential medium, supplemented with 7.5 µg/ml insulin, 7.5 µg/ml transferrin and 7.5 ng/ml sodium selenite (ITS Liquid Media Supplement, Sigma-Aldrich Cat #I3146)). Primary hippocampal neurons were used in live cell imaging, cell death experiments, while cortical neurons were used for mRNA and protein extraction analysis.
All viral particles were produced and purified as known in the art. All TRPM4 derived peptides (comprising SEQ ID NO:5, or any of SEQ ID NO:46 to SEQ ID NO:56) were cloned into rAAV backbone by PCR. shRNA against mouse TRPM4 were designed by BLOCK-iT™ RNAi Designer from Thermofisher to target: […] (SEQ ID NO:44, shTRPM4-1) and […] (SEQ ID NO:45, shTRPM4-2). Scramble shRNA (shSCR) has been tested and proven to have no known targets in mice. GPI anchor ([…], e.g. used in SEQ ID NO:53) sequences were synthesized by Eurofins Genomics (Ebersberg, Germany). All primers were synthesized and all plasmids were confirmed by sequencing by Eurofins Genomics.
In order to investigate the role of TRPM4 in NMDA receptor mediated excitotoxicity, the inventors used RNA interference strategies to knock down TRPM4. Cultured primary mouse hippocampus neurons were infected on day 3 in vitro (DIV3) with recombinant adeno-associated viruses (rAAVs) providing for expression of a scramble control (shSCR), shTRPM4-1 (SEQ ID NO:44) or shTRPM4-2 (SEQ ID NO:45). On DIV15-16, neurons were challenged with N-methyl-D-aspartate (NMDA, 20 μM) for 10 min. After NMDA wash out, neurons were kept in the culture medium for another 24 h before analysis. […] Evidently, TRPM4 is thus involved in the process of NMDA receptor mediated excitotoxicity.
In a next step, the inventors tried to identify regions in the mouse TRPM4 protein potentially involved in NMDA receptor mediated excitotoxicity. For this purpose, polypeptide fragments of mouse TRPM4 protein were generated and their impact on NMDA induced excitotoxicity analysed. To do so, primary neuron cultures were infected with respective rAAVs on DIV3, challenged with NMDA (20 μM) for 10 min on DIV17 and cell death assessed 24 hours later.
The sequence of SEQ ID NO:5 in TRPM4 is located in vivo just beneath the plasma membrane. […] To test this hypothesis, the inventors created a fusion protein comprising SEQ ID NO:5 and a GPI anchor, SEQ ID NO:57. The sequence of the fusion is given in SEQ ID NO:53. Neurons infected with rAAV and expressing SEQ ID NO:47 (control) or SEQ ID NO:53 were exposed to NMDA (20 μM) for 10 min on DIV15-16, with cell death assessed after 24 h.
In a next step, the inventors created a mutant of SEQ ID NO:5, in which two adjacent phenylalanine residues where substituted by tyrosine residues (SEQ ID NO: 54). […] TRPM5 is a protein related to but nonetheless distinct to TRPM4. The region in TRPM5 corresponding to SEQ ID NO:5, SEQ ID NO:55, shares only about 60% sequence identity with SEQ ID NO:5. Neurons were infected on DIV3 with rAAVs expressing SEQ ID NO: 5, SEQ ID NO: 54 or SEQ ID NO:55 and exposed to NMDA (20 μM) for 10 min on DIV17, with cell death assessed 24 h later. […]

[3] = tested on: primary mouse hippocampal neurons; test: as above; format: cell-based; settings: neurons incubated 1 h with 1 or 10 μg fusion protein before NMDA 20 μM 10 min; cell death 24 h later

CNCC1CCN(C(=O)c2ccc(-n3cnc4ccccc43)cc2)CC1 [P8]
NMDA receptor induced cell death (HEK293 cells): reduced the level of NMDA receptor induced cell death

O=C(NCc1ccc(CN2CCC(O)CC2)cc1)C1CC(F)(F)CN1 (centres unmarked) [P9]
NMDA receptor induced cell death (HEK293 cells): reduced the level of NMDA receptor induced cell death

CC1(CN)CCN(CC(=O)Nc2cc(Cl)ccc2Cl)C1 (centres unmarked) [P13]
NMDA receptor induced cell death (HEK293 cells): reduced the level of NMDA receptor induced cell death

MK-801 maleate [reference compound]
NMDA-induced calcium transients (NMDA receptor): completely blocked

SEQ ID NO:55: corresponding region of mouse TRPM5, about 60% sequence identity with SEQ ID NO:5, negative control (NSEDRAFALLVRRNHSWSRTTCLHLATEADAKAFFAHDGVQAFLTKIWWGDMATGTP; listed as Mus musculus) [reference compound]
NMDA receptor induced mitochondrial membrane potential breakdown [1]: not capable of preventing NMDA receptor induced mitochondrial membrane potential breakdown
protection against NMDA induced cell death (neuroprotective effect) [2]: not capable of reducing NMDA receptor-mediated cell toxicity
protection against NMDA induced cell death (neuroprotective effect) ([2]; listed as SEQ ID NO: 55): did not reduce NMDA receptor-mediated cell toxicity

B1: SEQ ID NO:56: fusion protein of SEQ ID NO:5 and protein transduction domain TAT (SEQ ID NO:42) (protein)
chain: RKKRRQRRRSQPNSEERAARLLLRRCPLWGEATCLQLAMQADARAFFAQDGVQSLLTQKWWGEMDSTTP
modifications: Fusion protein composed of TAT peptide and SEQ ID NO: 5
protection against NMDA excitotoxicity (cell death) [3]: protected neurons from NMDA excitotoxicity
